Laboratory results: PubChem BioAssay (NCI)
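GI50 = concentration required for 50% inhibition of growth. TGI: total growth inhibition.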

Key:
Experiment in all cases: NCI tumour cell line growth inhibition, 384-well format
MCF7 breast = tested on: MCF7 breast
SN12C renal = tested on: SN12C renal
UO-31 renal = tested on: UO-31 renal
NCI/ADR-RES ovarian = tested on: NCI/ADR-RES ovarian
ACHN renal = tested on: ACHN renal
RXF 393 renal = tested on: RXF 393 renal
SR leukemia = tested on: SR leukemia
HCT-15 colon = tested on: HCT-15 colon
HL-60(TB) leukemia = tested on: HL-60(TB) leukemia
OVCAR-3 ovarian = tested on: OVCAR-3 ovarian
HCC-2998 colon = tested on: HCC-2998 colon
SF-539 CNS = tested on: SF-539 CNS
HOP-62 NSCLC = tested on: HOP-62 NSCLC
MOLT-4 leukemia = tested on: MOLT-4 leukemia
LOX IMVI melanoma = tested on: LOX IMVI melanoma
UACC-62 melanoma = tested on: UACC-62 melanoma
KM12 colon = tested on: KM12 colon
T-47D breast = tested on: T-47D breast
SNB-19 CNS = tested on: SNB-19 CNS
MDA-MB-435 melanoma = tested on: MDA-MB-435 melanoma
NCI-H322M lung = tested on: NCI-H322M lung
OVCAR-5 ovarian = tested on: OVCAR-5 ovarian
SK-MEL-5 melanoma = tested on: SK-MEL-5 melanoma
M14 melanoma = tested on: M14 melanoma
CAKI-1 renal = tested on: CAKI-1 renal
NCI-H522 lung = tested on: NCI-H522 lung
NCI-H23 lung = tested on: NCI-H23 lung
MDA-MB-468 breast = tested on: MDA-MB-468 breast
EKVX NSCLC = tested on: EKVX NSCLC
HS 578T breast = tested on: HS 578T breast
SK-OV-3 ovarian = tested on: SK-OV-3 ovarian
BT-549 breast = tested on: BT-549 breast
U251 glioblastoma = tested on: U251 glioblastoma
HOP-92 NSCLC = tested on: HOP-92 NSCLC
SW-620 colon = tested on: SW-620 colon
COLO 205 colon = tested on: COLO 205 colon
IGROV1 ovarian = tested on: IGROV1 ovarian
CCRF-CEM leukemia = tested on: CCRF-CEM leukemia
OVCAR-4 ovarian = tested on: OVCAR-4 ovarian
A498 renal = tested on: A498 renal
HT29 colon = tested on: HT29 colon
MDA-MB-231 breast = tested on: MDA-MB-231 breast
SK-MEL-2 melanoma = tested on: SK-MEL-2 melanoma
SF-268 CNS = tested on: SF-268 CNS
RPMI-8226 leukemia = tested on: RPMI-8226 leukemia
K-562 leukemia = tested on: K-562 leukemia
MALME-3M melanoma = tested on: MALME-3M melanoma
SNB-75 CNS = tested on: SNB-75 CNS
NCI-H226 lung = tested on: NCI-H226 lung
PC-3 prostate = tested on: PC-3 prostate
786-0 renal = tested on: 786-0 renal
OVCAR-8 ovarian = tested on: OVCAR-8 ovarian
NCI-H460 NSCLC = tested on: NCI-H460 NSCLC
DU-145 prostate = tested on: DU-145 prostate
SK-MEL-28 melanoma = tested on: SK-MEL-28 melanoma
UACC-257 melanoma = tested on: UACC-257 melanoma
SF-295 CNS = tested on: SF-295 CNS

Q: For CC[C@@H](C(=O)[C@@H](C)[C@@H](O)[C@H](C)[C@@H]1O[C@@H]([C@@H](CC)C(=O)O)CC[C@@H]1C)[C@H]1O[C@]2(C=C[C@@H](O)[C@]3(CC[C@@](C)([C@H]4CC[C@](O)(CC)[C@H](C)O4)O3)O2)[C@H](C)C[C@@H]1C, which GI50 (MCF7 breast) is on record?
A: Its GI50 is under 10 nM.

Q: And the TGI (MCF7 breast)?
A: Its TGI is 278 nM.

Q: What about the GI50 (SN12C renal) of the same compound?
A: The GI50 was under 10 nM.

Q: What about the TGI (SN12C renal) of the same compound?
A: Its TGI is 1760 nM.

Q: And the GI50 (UO-31 renal)?
A: Its GI50 is 157 nM.

Q: What about the TGI (UO-31 renal) of the same compound?
A: Its TGI is 759 nM.

Q: And the GI50 (NCI/ADR-RES ovarian)?
A: The GI50 was 167 nM.

Q: And the TGI (NCI/ADR-RES ovarian)?
A: Its TGI is 2110 nM.

Q: What about the GI50 (ACHN renal) of the same compound?
A: Its GI50 is 416 nM.

Q: And the TGI (ACHN renal)?
A: The TGI was 13600 nM.

Q: What about the GI50 (RXF 393 renal) of the same compound?
A: Its GI50 is under 10 nM.

Q: What about the TGI (RXF 393 renal) of the same compound?
A: The TGI was under 10 nM.

Q: What about the GI50 (SR leukemia) of the same compound?
A: Its GI50 is under 10 nM.

Q: What about the TGI (SR leukemia) of the same compound?
A: The TGI was under 10 nM.

Q: And the GI50 (HCT-15 colon)?
A: The GI50 was 299 nM.

Q: And the TGI (HCT-15 colon)?
A: The TGI was 1190 nM.

Q: What about the GI50 (HL-60(TB) leukemia) of the same compound?
A: Its GI50 is under 10 nM.

Q: What about the TGI (HL-60(TB) leukemia) of the same compound?
A: The TGI was under 10 nM.

Q: And the GI50 (OVCAR-3 ovarian)?
A: The GI50 was under 10 nM.

Q: And the TGI (OVCAR-3 ovarian)?
A: Its TGI is under 10 nM.

Q: What does the source list for COc1ccc(F)cc1-c1ccnc2[nH]c(C3=CCN(C4CCC(CC(=O)O)CC4)CC3)cc12 (centres undefined)?
A: GI50 (MCF7 breast): 31.1 nM; TGI (MCF7 breast): 12000 nM; GI50 (SN12C renal): 59.7 nM; TGI (SN12C renal): 282 nM; GI50 (UO-31 renal): 102 nM; TGI (UO-31 renal): 691 nM; GI50 (NCI/ADR-RES ovarian): 1220 nM; TGI (NCI/ADR-RES ovarian): 4590 nM; GI50 (HCC-2998 colon): 110 nM; TGI (HCC-2998 colon): 432 nM; GI50 (SF-539 CNS): 104 nM; TGI (SF-539 CNS): 277 nM; GI50 (HOP-62 NSCLC): 52.4 nM; TGI (HOP-62 NSCLC): 194 nM; GI50 (MOLT-4 leukemia): 36.6 nM; TGI (MOLT-4 leukemia): 121 nM; GI50 (LOX IMVI melanoma): 33.6 nM; TGI (LOX IMVI melanoma): 141 nM; GI50 (UACC-62 melanoma): < 16.4 nM; TGI (UACC-62 melanoma): 87.5 nM; GI50 (KM12 colon): 28.9 nM; TGI (KM12 colon): 240 nM; GI50 (T-47D breast): 72 nM; GI50 (ACHN renal): 156 nM; GI50 (SNB-19 CNS): 78.7 nM; TGI (SNB-19 CNS): > 68300 nM; GI50 (MDA-MB-435 melanoma): 130 nM; TGI (MDA-MB-435 melanoma): 411 nM; GI50 (NCI-H322M lung): 113 nM; TGI (NCI-H322M lung): 367 nM; GI50 (OVCAR-5 ovarian): 115 nM; TGI (OVCAR-5 ovarian): 31600 nM; GI50 (SK-MEL-5 melanoma): 48.7 nM; TGI (SK-MEL-5 melanoma): 156 nM; GI50 (M14 melanoma): 87.2 nM; TGI (M14 melanoma): 304 nM; GI50 (CAKI-1 renal): 111 nM; TGI (CAKI-1 renal): 465 nM; GI50 (NCI-H522 lung): 131 nM; TGI (NCI-H522 lung): 306 nM; GI50 (NCI-H23 lung): 49.5 nM; TGI (NCI-H23 lung): 195 nM; GI50 (MDA-MB-468 breast): 34.1 nM; TGI (MDA-MB-468 breast): 118 nM; GI50 (EKVX NSCLC): 150 nM; TGI (EKVX NSCLC): 437 nM; GI50 (HS 578T breast): 19 nM; TGI (HS 578T breast): 55.7 nM; GI50 (SK-OV-3 ovarian): 398 nM; TGI (SK-OV-3 ovarian): > 25900 nM; GI50 (BT-549 breast): 53.4 nM; TGI (BT-549 breast): 145 nM; GI50 (U251 glioblastoma): 142 nM; TGI (U251 glioblastoma): 490 nM; GI50 (HOP-92 NSCLC): 94.1 nM; GI50 (RXF 393 renal): 18.3 nM; TGI (RXF 393 renal): 53.7 nM; GI50 (SW-620 colon): 62.3 nM; TGI (SW-620 colon): 588 nM; GI50 (COLO 205 colon): 33.6 nM; TGI (COLO 205 colon): 188 nM; GI50 (IGROV1 ovarian): 77.1 nM; TGI (IGROV1 ovarian): > 100000 nM; GI50 (CCRF-CEM leukemia): 21.8 nM; TGI (CCRF-CEM leukemia): 57.8 nM; GI50 (OVCAR-4 ovarian): 158 nM; TGI (OVCAR-4 ovarian): 492 nM; TGI (SR leukemia): < 14.1 nM; GI50 (A498 renal): 86.4 nM; GI50 (HCT-15 colon): 63.7 nM; TGI (HCT-15 colon): 2320 nM; GI50 (HT29 colon): 184 nM; TGI (HT29 colon): 606 nM; GI50 (MDA-MB-231 breast): 70.1 nM; TGI (MDA-MB-231 breast): 362 nM; GI50 (SK-MEL-2 melanoma): 49.3 nM; TGI (SK-MEL-2 melanoma): 176 nM; GI50 (SF-268 CNS): 22.3 nM; TGI (SF-268 CNS): 84.4 nM; GI50 (RPMI-8226 leukemia): 42.2 nM; TGI (RPMI-8226 leukemia): 138 nM; GI50 (HL-60(TB) leukemia): 15.1 nM; TGI (HL-60(TB) leukemia): 32.5 nM; GI50 (K-562 leukemia): 136 nM; TGI (K-562 leukemia): 521 nM; GI50 (MALME-3M melanoma): 63 nM; TGI (MALME-3M melanoma): 197 nM; GI50 (SNB-75 CNS): 48.3 nM; TGI (SNB-75 CNS): 172 nM; GI50 (NCI-H226 lung): 116 nM; TGI (NCI-H226 lung): 451 nM; GI50 (PC-3 prostate): 124 nM; TGI (PC-3 prostate): 520 nM; GI50 ([…]-0 renal): 82.4 nM; TGI (786-0 renal): 266 nM; GI50 (OVCAR-8 ovarian): 54.6 nM; TGI (OVCAR-8 ovarian): 238 nM; GI50 (NCI-H460 NSCLC): 63.4 nM; TGI (NCI-H460 NSCLC): 183 nM; GI50 (DU-145 prostate): 115 nM; TGI (DU-145 prostate): 1820 nM; GI50 (SK-MEL-28 melanoma): 39.1 nM; TGI (SK-MEL-28 melanoma): 202 nM; GI50 (OVCAR-3 ovarian): 33.4 nM; TGI (OVCAR-3 ovarian): 183 nM; GI50 (UACC-257 melanoma): 138 nM; TGI (UACC-257 melanoma): 288 nM; GI50 (SF-295 CNS): 171 nM; TGI (SF-295 CNS): 456 nM
